Patent publication US12331035B2, “Bicyclic compound and use thereof” (SK BIOPHARMACEUTICALS CO., LTD., priority 2019, dated 2025)
pIC50: −log10 of the molar value.

Tests used:
SDMA levels in the tumor = assay: Test for in vivo target inhibitory activity (SDMA levels in U87MG tumor); conditions: U87MG tumor cells implanted subcutaneously in nude mice, oral 25 or 50 mg/kg 1-2 times daily for one week
Procedure: Test for In Vivo Target Inhibitory Activity
After U87MG tumor cells were implanted subcutaneously in nude mice, a PRMT5 inhibitor was administered orally (25 or 50 mg/kg) 1-2 times daily for one week, and then the degree to which SDMA levels in the tumor decreased was measured.
Reagents: Bradford's solution (Catalog No. 500-0006) was purchased from Bio-rad (USA). SDMA antibody (Catalog No. 13222s) was purchased from Cell Signaling Technology (USA). SmD3 antibody (Catalog No. ap12451a) was purchased from Abgent (USA), and secondary antibody (Catalog No. ab6721) and TMB substrate (Catalog No. ab210902) were purchased from Abcam (UK).
Experimental procedure: The tumor tissues transplanted into the mice were excised, the cells were lysed, and then quantified with Bradford's solution. 5-10 μg of protein per sample was diluted with carbonate-bicarbonate buffer and dispensed into a 96-well plate and reacted at room temperature for 2 hours. After washing with phosphate buffered saline (PBST) containing 0.05% Tween-20 3 times, 200 μL of PBST containing 5% bovine serum albumin (BSA-PBST) was added and reacted at room temperature for 2 hours. After washing with PBST 3 times, the SDMA antibody and the SmD3 antibody were diluted in BSA-PBST, and 100 μL of each was dispensed onto the plate and reacted at 4° C. overnight. After washing with PBST 3 times the next day, 100 μL of the secondary antibody diluted in BSA-PBST was added and reacted at room temperature for 1 hour. After washing with PBST 3 times, 100 μL of TMB substrate was added and reacted at room temperature for 10-20 minutes, and 100 μL of 1N sulfuric acid solution was added to terminate the reaction. Then, the absorbance at 450 nm was measured to calculate the degree of SDMA inhibition by the compound. (+++: more than 70%, ++: more than 30% and 70% or less, +: 30% or less)

[1] = biological target: T1, PRMT5-MEP50 enzyme complex (Homo sapiens, UniProt O14744); assay: In vitro PRMT5 enzyme activity assay (methylation of histone H4 arginine H4R3, ELISA absorbance at 450 nm); type: biochemical; conditions: S-adenosylmethionine, histone H4 peptide, 2 hours at room temperature, 8 points 10 μM to 0.128 nM
T1 construct: purchased BPS Bioscience (USA) 51045
In short: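 Human PRMT5-MEP50 (5 μg/mL working stock) with 2 μM SAM stock on histone H4 (1-20) peptide-coated plates, compound 8-point 1:5 series from 10 μM, 2 h at room temperature. H4R3 methylation detected by antibody/HRP ELISA, absorbance 450 nm; IC50 calculated.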

T1 sequence (O14744 2-637 limits assumed): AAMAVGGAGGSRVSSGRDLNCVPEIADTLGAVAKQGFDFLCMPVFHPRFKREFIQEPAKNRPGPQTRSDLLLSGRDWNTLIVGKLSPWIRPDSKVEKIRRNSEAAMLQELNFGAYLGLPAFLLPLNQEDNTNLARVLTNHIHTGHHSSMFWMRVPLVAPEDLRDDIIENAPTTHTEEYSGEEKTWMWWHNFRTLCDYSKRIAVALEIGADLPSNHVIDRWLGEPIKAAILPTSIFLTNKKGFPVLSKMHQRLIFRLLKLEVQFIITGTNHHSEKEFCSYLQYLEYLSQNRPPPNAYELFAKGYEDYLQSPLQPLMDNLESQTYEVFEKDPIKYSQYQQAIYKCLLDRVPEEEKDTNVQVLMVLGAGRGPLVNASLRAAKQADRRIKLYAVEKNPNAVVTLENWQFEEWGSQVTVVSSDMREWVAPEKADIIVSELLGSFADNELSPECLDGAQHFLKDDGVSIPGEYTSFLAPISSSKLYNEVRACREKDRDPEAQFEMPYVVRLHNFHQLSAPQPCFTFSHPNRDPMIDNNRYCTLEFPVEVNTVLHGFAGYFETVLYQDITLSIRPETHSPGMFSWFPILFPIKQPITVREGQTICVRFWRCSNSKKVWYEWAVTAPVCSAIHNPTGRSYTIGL
T1 sequence (Q9BQA1 2-342 partner limits assumed): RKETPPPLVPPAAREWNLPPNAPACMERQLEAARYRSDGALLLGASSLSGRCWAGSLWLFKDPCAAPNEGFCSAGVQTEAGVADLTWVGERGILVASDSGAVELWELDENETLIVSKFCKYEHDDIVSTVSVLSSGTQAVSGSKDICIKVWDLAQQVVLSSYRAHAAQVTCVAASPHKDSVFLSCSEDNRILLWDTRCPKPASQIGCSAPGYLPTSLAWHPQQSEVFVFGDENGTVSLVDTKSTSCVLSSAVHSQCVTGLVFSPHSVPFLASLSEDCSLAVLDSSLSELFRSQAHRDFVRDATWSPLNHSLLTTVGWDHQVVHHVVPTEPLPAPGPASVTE

pIC50 [1] | SMILES | SDMA inhibition (SDMA levels in the tumor)
7.00 to 9.00 | O=CN1CCN(c2ccc3c(c2)CCN(C[C@H](O)CN2CCc4ccccc4C2)C3=O)CC1 [Example 87, 4-[2-[(2R)-3-(3,4-dihydro-1H-isoquinolin-2-yl)-2-hydroxy-propyl]-1-oxo-3,4-dihydroisoquinolin-6-yl]piperazine-1-carbaldehyde] | ++ (++: more than 30% and 70% or less)
6.00 to 7.00 | CN1CCC(Oc2ccc3c(c2)CCN(C[C@H](O)CN2CCc4ccccc4C2)C3=O)CC1 [Example 135, 2-[(2R)-3-(3,4-dihydro-1H-isoquinolin-2-yl)-2-hydroxy-propyl]-6-[(1-methyl-4-piperidyl)oxy]-3,4-dihydroisoquinolin-1-one] | +++ (+++: more than 70%)
